Assays:
human 5-HT1A receptor [1] = target: T1, human 5-HT1A receptor (Homo sapiens (Human), UniProt P08908); test: Test 1: binding activity for human 5-HT1A receptor ([3H]8-OH-DPAT, CHO cell membrane fraction)
In short: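 Membranes incubated with [3H]8-OH-DPAT and compound for 60 min at room temperature, then filtered on polyethylenimine-coated glass-fibre plates and counted by liquid scintillation. IC50 from Hill analysis; Ki = IC50/(1+S/Kd), Kd from saturation binding on the same membranes.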

human D2 receptor = human D2 receptor (Homo sapiens (Human), UniProt P14416); test: Test 1: binding activity for human D2 receptor ([3H]Spiperone, CHO cell membrane fraction); conditions: human D2 receptor, [3H]Spiperone
human D2 receptor, sequence (P14416 whole entry): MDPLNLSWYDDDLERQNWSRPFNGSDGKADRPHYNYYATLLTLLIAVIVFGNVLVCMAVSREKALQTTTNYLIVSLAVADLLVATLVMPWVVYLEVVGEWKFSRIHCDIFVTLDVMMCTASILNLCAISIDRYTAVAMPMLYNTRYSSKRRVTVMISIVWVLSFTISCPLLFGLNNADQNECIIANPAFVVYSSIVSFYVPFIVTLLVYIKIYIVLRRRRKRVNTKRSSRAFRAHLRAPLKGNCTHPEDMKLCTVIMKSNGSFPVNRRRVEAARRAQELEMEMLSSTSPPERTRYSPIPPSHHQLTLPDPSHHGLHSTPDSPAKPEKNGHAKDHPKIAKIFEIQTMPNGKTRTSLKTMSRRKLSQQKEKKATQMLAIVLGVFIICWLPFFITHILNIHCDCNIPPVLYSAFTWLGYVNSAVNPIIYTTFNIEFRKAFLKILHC
In short: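 Compound displacement of [3H]ketanserin at 5-HT2A or [3H]spiperone at D2 was measured in CHO membrane fractions after 60 min at room temperature, with filtration and scintillation counting. IC50 was converted to Ki by Cheng–Prusoff using ligand concentration and Kd from saturation binding.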

human 5-HT1A receptor [2] = target: T1, human 5-HT1A receptor; test: Test 2: agonist activity for human 5-HT1A receptor ([35S]GTPγS binding); type: biochemical; conditions: for EC50: [35S]GTPγS binding, concentration at which half the activity of Emax was obtained; for Emax at 10 µM: agonist activity in the presence of 10 μM of compound, relative to 100 μmol/L 5-HT
In short: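 [35S]GTPγS binding read-out: after 60 min at room temperature with test compound in GDP buffer, human 5-HT1A receptor CHO membranes were vacuum-filtered and retained radioactivity scintillation-counted. Agonist activity calculated by formula.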

[3] = Test 4: metabolic stability test in human hepatic microsome; type: in vitro ADME; conditions: 0.1 mg/mL microsome, 0.1 μmol/L compound, 37° C., 30 minutes
In short: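 LC-MS quantified remaining parent after 30 min, 37° C, in pH 7.4 25 mmol/L phosphate containing 0.1 mg/mL human hepatic microsomes, 3.2 mmol/L NADPH and 0.1 μmol/L test compound. Value given as −LN(residual ratio)/30/0.1, mL/min/mg protein.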

hERG channel = hERG channel (Homo sapiens (Human), UniProt Q12809); test: Test 6-1: inhibitory activity for hERG channel (auto patch clamp, Qpatch); type: cell-based; conditions: whole cell auto patch clamp, hERG-CHO cells; read-out: hERG inhibition IC50
hERG channel, sequence (Q12809 whole entry): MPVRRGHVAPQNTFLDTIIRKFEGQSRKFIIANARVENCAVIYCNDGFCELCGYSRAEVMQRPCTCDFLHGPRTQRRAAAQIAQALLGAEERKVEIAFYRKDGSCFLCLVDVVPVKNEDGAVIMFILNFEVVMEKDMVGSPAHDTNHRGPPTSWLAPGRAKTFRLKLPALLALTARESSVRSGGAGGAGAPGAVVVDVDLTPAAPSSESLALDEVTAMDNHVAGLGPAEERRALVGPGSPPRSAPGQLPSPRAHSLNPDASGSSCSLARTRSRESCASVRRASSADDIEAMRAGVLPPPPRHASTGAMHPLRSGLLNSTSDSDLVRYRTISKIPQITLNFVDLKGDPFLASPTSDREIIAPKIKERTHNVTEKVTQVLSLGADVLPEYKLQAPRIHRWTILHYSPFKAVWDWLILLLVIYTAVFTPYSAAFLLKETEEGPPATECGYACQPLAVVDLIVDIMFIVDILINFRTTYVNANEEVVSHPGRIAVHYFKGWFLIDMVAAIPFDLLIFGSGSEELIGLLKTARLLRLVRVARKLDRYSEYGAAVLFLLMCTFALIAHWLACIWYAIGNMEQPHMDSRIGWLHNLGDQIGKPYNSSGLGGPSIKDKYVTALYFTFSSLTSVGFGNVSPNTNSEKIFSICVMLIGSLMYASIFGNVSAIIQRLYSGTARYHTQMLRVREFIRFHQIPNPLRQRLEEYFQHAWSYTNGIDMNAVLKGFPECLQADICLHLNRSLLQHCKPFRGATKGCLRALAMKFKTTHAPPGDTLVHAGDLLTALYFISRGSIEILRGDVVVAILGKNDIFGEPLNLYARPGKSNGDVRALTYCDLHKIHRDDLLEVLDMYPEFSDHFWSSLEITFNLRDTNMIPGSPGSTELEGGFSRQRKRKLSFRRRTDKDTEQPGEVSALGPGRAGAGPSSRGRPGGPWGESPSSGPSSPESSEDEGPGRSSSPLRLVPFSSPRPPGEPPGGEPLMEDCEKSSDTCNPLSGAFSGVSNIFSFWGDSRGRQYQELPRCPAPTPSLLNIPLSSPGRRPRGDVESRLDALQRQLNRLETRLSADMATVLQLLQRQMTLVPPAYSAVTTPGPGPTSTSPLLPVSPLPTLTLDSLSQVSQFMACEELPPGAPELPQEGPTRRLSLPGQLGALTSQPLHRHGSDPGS
In short: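 Whole-cell patch clamp on an automated system using CHO cells stably expressing human hERG (IKr); 15 s pulse interval. Four increasing compound concentrations applied cumulatively; mean peak tail current from last 3 stimulations per concentration used. IC50 from inhibition versus pre-compound current, fitted by Hill equation.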

T1 sequence (P08908 whole entry): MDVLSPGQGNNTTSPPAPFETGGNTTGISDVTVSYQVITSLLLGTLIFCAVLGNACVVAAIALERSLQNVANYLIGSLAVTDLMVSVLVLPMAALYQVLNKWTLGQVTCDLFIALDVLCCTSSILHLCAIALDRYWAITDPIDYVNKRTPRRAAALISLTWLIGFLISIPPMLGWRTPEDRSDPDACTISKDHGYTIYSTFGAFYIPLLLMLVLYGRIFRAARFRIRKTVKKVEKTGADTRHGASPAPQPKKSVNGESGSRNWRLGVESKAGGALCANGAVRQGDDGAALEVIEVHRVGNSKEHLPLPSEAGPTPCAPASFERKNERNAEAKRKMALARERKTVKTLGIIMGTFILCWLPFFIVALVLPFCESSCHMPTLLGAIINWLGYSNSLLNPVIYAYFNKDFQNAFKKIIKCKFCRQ

| Compound | Ki (human 5-HT1A receptor [1]) | Ki (human D2 receptor) | EC50 (human 5-HT1A receptor [2]) | Emax at 10 µM (human 5-HT1A receptor [2]) | Metabolic stability in human hepatic microsome [3] | IC50 (hERG channel) |
| --- | --- | --- | --- | --- | --- | --- |
| CCn1ncc2c1CCN(CCN1CCN(c3nsc4ccccc34)CC1)C2=O [Example 64] | 17.4 nM | 430 nM | 191 nM | 69% | 0.064 mL/min/mg protein | 7700 nM |
| O=C1c2cnc(Br)cc2CCN1CCN1CCN(c2nsc3ccccc23)CC1 [Example 62] | 0.1 nM | 222 nM | 1.01 nM | 62% | 0.505 mL/min/mg protein | 1500 nM |
| Cc1ncc2c(n1)CCN(CCN1CCN(c3nsc4ccccc34)CC1)C2=O [Example 90] | 6.77 nM | 1070 nM | 57.7 nM | 65% | 0.070 mL/min/mg protein | > 10000 nM |
| Cc1cc2c(cn1)C(=O)N(CCN1CCC(c3noc4ccccc34)CC1)CC2 [Example 135] | 1.4 nM | 62 nM | 6.14 nM | 54% | <0.05 mL/min/mg protein | 700 nM |
| Cc1cncc2c1CCN(CCN1CCC(c3noc4ccccc34)CC1)C2=O [Example 138] | 27.6 nM | 76 nM | 100 nM | 32% | 0.083 mL/min/mg protein | 1200 nM |
| O=C1c2cnc(C3CC3)nc2CCN1CCN1CCN(c2nsc3ccccc23)CC1 [Example 94] | 5.24 nM | 236 nM | 79.4 nM | 53% | 0.368 mL/min/mg protein | 2300 nM |
| Cc1c2c(nn1C)CCN(CCN1CCN(c3nsc4ccccc34)CC1)C2=O [Example 65] | 0.9 nM | 222 nM | 2.1 nM | 72% | 0.126 mL/min/mg protein | 4400 nM |
| CCc1cc2c(cn1)C(=O)N(CCN1CCN(c3nsc4ccccc34)CC1)CC2 [Example 104, 2-{2-[4-(1,2-Benzoisothiazol-3-yl)piperazin-1-yl]ethyl}-6-ethyl-3,4-dihydro-2,7-naphthyridin-1(2H)-one] | 0.41 nM | 93 nM | 1.99 nM | 64% | 0.358 mL/min/mg protein | 700 nM |
| Cn1cc2c(n1)CCCN(CCN1CCC(c3noc4ccccc34)CC1)C2=O [Example 41] | 10.9 nM | 131 nM | 79.3 nM | 45% | <0.01 mL/min/mg protein | 500 nM |
| CC1CN(CCN2CCN(c3nsc4ccccc34)CC2)C(=O)c2cnn(C)c21 (stereo not drawn) [Example 77] | 0.24 nM | 605 nM | 1.3 nM | 78% | 0.119 mL/min/mg protein | 4600 nM |
| [2H]C([2H])([2H])Oc1cc2c(cn1)C(=O)N(CCN1CCN(c3nsc4ccccc34)CC1)CC2([2H])[2H] [Example 107, 2-{2-[4-(1,2-Benzoisothiazol-3-yl)piperazin-1-yl]ethyl}-6-[(^2H3)methyloxy] (4,4-^2H2)-3,4-dihydro-2,7-naphthyridin-1(2H)-one] | 0.08 nM | 244 nM | 7.67 nM | 64% | 0.210 mL/min/mg protein | 1700 nM |
| Cc1nn(C)c2c1C(=O)N(CCN1CCN(c3nsc4ccccc34)CC1)CC2 [Example 105, 5-{2-[4-(1,2-Benzoisothiazol-3-yl)piperazin-1-yl]ethyl}-1,3-dimethyl-1,5,6,7-tetrahydro-4H-pyrazolo[4,3-c]pyridin-4-one] | 6 nM | 194 nM | 14 nM | 74% | 0.101 mL/min/mg protein | 7900 nM |
| O=C1c2nc(F)ccc2CCN1CCN1CCC(c2noc3ccccc23)CC1 [Example 188, 7-{2-[4-(1,2-Benzoisoxazol-3-yl)piperidin-1-yl]ethyl}-2-fluoro-6,7-dihydro-1,7-naphthyridin-8(5H)-one] | 7.85 nM | 703 nM | 82.6 nM | 53% | <0.05 mL/min/mg protein | 1900 nM |
| Cc1ccc2c(n1)C(=O)N(CCN1CCN(c3noc4ccccc34)CC1)CC2 [Example 183] | 21.9 nM | > 10000 nM | 308 nM | 44% | <0.05 mL/min/mg protein | > 3000 nM |
| CC1CN(CCN2CCC(c3noc4ccccc34)CC2)C(=O)c2ncccc21 (stereo not drawn) [Example 15] | 0.51 nM | 1560 nM | 7.32 nM | 57% | 0.055 mL/min/mg protein | 1600 nM |
| Cc1cc2c(n1C)CCCN(CCN1CCC(c3noc4ccccc34)CC1)C2=O [Example 166] | 0.17 nM | 139 nM | 6.22 nM | 57% | <0.05 mL/min/mg protein | 1000 nM |
| Cn1c(F)cc2c1CCN(CCN1CCN(c3nsc4ccccc34)CC1)C2=O [Example 112, 5-{2-[4-(1,2-Benzoisothiazol-3-yl)piperazin-1-yl]ethyl}-2-fluoro-1-methyl-1,5,6,7-tetrahydro-4H-pyrrolo[3,2-c]pyridin-4-one] | 1.58 nM | 169 nM | 9.44 nM | 64% | 0.459 mL/min/mg protein | 2200 nM |
| COc1c2c(nn1C)CCN(CCN1CCN(c3nsc4ccccc34)CC1)C2=O [Example 106, 5-{2-[4-(1,2-Benzoisothiazol-3-yl)piperazin-1-yl]ethyl}-3-methoxy-2-methyl-2,5,6,7-tetrahydro-4H-pyrazolo[4,3-c]pyridin-4-one] | 1.63 nM | 804 nM | 38.4 nM | 74% | 0.244 mL/min/mg protein | 4800 nM |
| Cn1ccc2c1CCN(CCN1CCN(c3nsc4ccccc34)CC1)C2=O [Example 61] | 1.7 nM | 134 nM | 9.8 nM | 63% | 0.056 mL/min/mg protein | > 10000 nM |
| Cn1cc2c(n1)C(=O)N(CCN1CCC(c3noc4ccccc34)CC1)CC2 [Example 156] | 5.17 nM | 743 nM | 31 nM | 46% | <0.05 mL/min/mg protein | 2100 nM |
| CC(C)c1nc2c(o1)C(=O)N(CCN1CCN(c3nsc4ccccc34)CC1)CC2 [Example 66] | 8.68 nM | 841 nM | 78.2 nM | 67% | 0.357 mL/min/mg protein | 2100 nM |
| Cn1nc2c(c1C(F)(F)F)C(=O)N(CCN1CCN(c3nsc4ccccc34)CC1)CC2 [Example 78] | 0.46 nM | 343 nM | 0.77 nM | 66% | 0.459 mL/min/mg protein | 5500 nM |
| Cn1ncc2c1CCCN(CCN1CCN(c3nsc4ccccc34)CC1)C2=O [Example 44] | 0.22 nM | 121 nM | 1.8 nM | 76% | 0.04 mL/min/mg protein | 7700 nM |
| O=c1c2ncccc2ccn1CCN1CCC(c2noc3cc(F)ccc23)CC1 [Example 12] | 7.03 nM | 311 nM | 96 nM | 32% | 0.02 mL/min/mg protein | 300 nM |
| O=C1c2cn[nH]c2CCCN1CCN1CCC(c2noc3ccccc23)CC1 [Example 97, 5-{2-[4-(1,2-Benzoisoxazol-3-yl)piperidin-1-yl]ethyl}-5,6,7,8-tetrahydropyrazolo[4,3-c]azepin-4(1H)-one] | 17.6 nM | 136 nM | 447 nM | 42% | <0.01 mL/min/mg protein | 2600 nM |
| Cn1cnc2c1C(=O)N(CCN1CCN(c3nsc4ccccc34)CC1)CCC2 [Example 55] | 13.6 nM | 697 nM | 4.3 nM | 50% | 0.161 mL/min/mg protein | > 10000 nM |
| CC1CN(CCN2CCN(c3nsc4ccccc34)CC2)C(=O)c2ccn(C)c21 (stereo not drawn) [Example 79] | 0.19 nM | 239 nM | 6.21 nM | 63% | 0.409 mL/min/mg protein | 4500 nM |

— patent US10745401B2, “Condensed lactam derivative” (Sumitomo Dainippon Pharma Co., Ltd., priority 2018, dated 2020)
